Assay results from patent US10405547B2, “Substituted cyclic amides as herbicides” (FMC Corporation, priority 2015, dated 2019).

Tests used:
Format in all cases: in vivo
[1] = system: foxtail, giant (Setaria faberii); assay: Test A postemergence, giant foxtail; details: visual injury, 0 to 100 scale (0 no effect, 100 complete control), approximately 10 days
Outline: (§1)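 Ratings use a 0–100 scale, where 0 means no effect and 100 means complete control, and come from visual comparison with untreated plants roughly 10 days after treatment. Compounds were applied in a surfactant-containing, non-phytotoxic solvent, either to soil after seeding or to foliage of small seedlings.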

[2] = system: ragweed (common ragweed, Ambrosia elatior); assay: Test A preemergence, ragweed; details: 0 to 100 scale (0 no effect, 100 complete control)
Outline: as §1

[3] = system: wheat (Triticum aestivum); assay: Test A postemergence, wheat; details: visual injury, 0 to 100 scale (0 no effect, 100 complete control), approximately 10 days
Outline: as §1

[4] = system: barnyardgrass (Echinochloa crus-galli); assay: Test A postemergence, barnyardgrass; details: visual injury, 0 to 100 scale (0 no effect, 100 complete control), approximately 10 days
Outline: as §1

[5] = system: pigweed (Amaranthus retroflexus); assay: Test A postemergence, pigweed; details: visual injury, 0 to 100 scale (0 no effect, 100 complete control), approximately 10 days
Outline: as §1

[6] = system: sedge, umbrella (small-flower umbrella sedge, Cyperus difformis); assay: Test B flooded paddy test, umbrella sedge; details: 250 g ai/ha, applied to paddy water, visual rating after 13 to 15 days, scale 0 (no effect) to 100 (complete control)
Outline: (§2)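 Under a constant 3 cm flood, test compounds went directly into the paddy water. Following 13 to 15 days of greenhouse growth, treated species and controls were compared by eye.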

[7] = system: ryegrass, Italian (Lolium multiflorum); assay: Test A postemergence, Italian ryegrass; details: visual injury, 0 to 100 scale (0 no effect, 100 complete control), approximately 10 days
Outline: as §1

corn (Zea mays) = assay: Test A postemergence, corn; details: visual injury, 0 to 100 scale (0 no effect, 100 complete control), approximately 10 days
Outline: as §1

[8] = system: foxtail, giant (Setaria faberii); assay: Test A preemergence, giant foxtail; details: 0 to 100 scale (0 no effect, 100 complete control)
Outline: as §1

[9] = system: blackgrass (Alopecurus myosuroides); assay: Test A postemergence, blackgrass; details: visual injury, 0 to 100 scale (0 no effect, 100 complete control), approximately 10 days
Outline: as §1

[10] = system: barnyardgrass (Echinochloa crus-galli); assay: Test B flooded paddy test, barnyardgrass; details: 250 g ai/ha, applied to paddy water, visual rating after 13 to 15 days, scale 0 (no effect) to 100 (complete control)
Outline: as §2

rice (Oryza sativa) = assay: Test B flooded paddy test, rice; details: 250 g ai/ha, applied to paddy water, visual rating after 13 to 15 days, scale 0 (no effect) to 100 (complete control)
Outline: as §2

[11] = system: ryegrass, Italian (Lolium multiflorum); assay: Test A preemergence, Italian ryegrass; details: 0 to 100 scale (0 no effect, 100 complete control)
Outline: as §1

[12] = system: barnyardgrass (Echinochloa crus-galli); assay: Test A preemergence, barnyardgrass; details: 0 to 100 scale (0 no effect, 100 complete control)
Outline: as §1

kochia (Kochia scoparia) [13] = assay: Test A postemergence, kochia; details: visual injury, 0 to 100 scale (0 no effect, 100 complete control), approximately 10 days
Outline: as §1

kochia (Kochia scoparia) [14] = assay: Test A preemergence, kochia; details: 0 to 100 scale (0 no effect, 100 complete control)
Outline: as §1

[15] = system: ducksalad (Heteranthera limosa); assay: Test B flooded paddy test, ducksalad; details: 250 g ai/ha, applied to paddy water, visual rating after 13 to 15 days, scale 0 (no effect) to 100 (complete control)
Outline: as §2

[16] = system: pigweed (Amaranthus retroflexus); assay: Test A preemergence, pigweed; details: 0 to 100 scale (0 no effect, 100 complete control)
Outline: as §1

[17] = system: ragweed (common ragweed, Ambrosia elatior); assay: Test A postemergence, ragweed; details: visual injury, 0 to 100 scale (0 no effect, 100 complete control), approximately 10 days
Outline: as §1

[18] = system: galium (catchweed bedstraw, Galium aparine); assay: Test A postemergence, galium; details: visual injury, 0 to 100 scale (0 no effect, 100 complete control), approximately 10 days
Outline: as §1

Row | Compound | Plant response rating, Foxtail, Giant ([1]; 125 g ai/ha) | Plant response rating, Foxtail, Giant ([1]; 500 g ai/ha) | Plant response rating, Ragweed ([2]; 125 g ai/ha) | Plant response rating, Ragweed ([2]; 500 g ai/ha) | Plant response rating, Wheat ([3]; 125 g ai/ha) | Plant response rating, Wheat ([3]; 500 g ai/ha) | Plant response rating, Barnyardgrass ([4]; 125 g ai/ha) | Plant response rating, Barnyardgrass ([4]; 500 g ai/ha) | Plant response rating, Pigweed ([5]; 125 g ai/ha) | Plant response rating, Pigweed ([5]; 500 g ai/ha) | Plant response rating, Sedge, Umbrella (Flood) [6] | Plant response rating, Ryegrass, Italian ([7]; 125 g ai/ha) | Plant response rating, Ryegrass, Italian ([7]; 500 g ai/ha) | Plant response rating, Corn (corn (Zea mays); 125 g ai/ha) | Plant response rating, Corn (corn (Zea mays); 500 g ai/ha) | Plant response rating, Foxtail, Giant ([8]; 125 g ai/ha) | Plant response rating, Foxtail, Giant ([8]; 500 g ai/ha) | Plant response rating, Blackgrass ([9]; 125 g ai/ha) | Plant response rating, Blackgrass ([9]; 500 g ai/ha) | Plant response rating, Barnyardgrass (Flood) [10] | also measured
1 | CN1CC(c2cccc(Oc3ncc(F)cn3)c2)C(C(=O)Nc2cccc(F)c2F)C1=O (single isomer, unassigned) [Compound 38] | 90 | 90 | 40 | 80 | 50 | 70 | 100 | 100 | 50 | 70 | 0 | 70 | 80 | 90 | 100 | 100 | 100 | 70 | 70 | 60 | Plant response rating, Rice (Flood) (rice (Oryza sativa)): 0; Plant response rating, Ryegrass, Italian ([11]; 125 g ai/ha): 80; Plant response rating, Ryegrass, Italian ([11]; 500 g ai/ha): 100; Plant response rating, Barnyardgrass ([12]; 125 g ai/ha): 90; Plant response rating, Barnyardgrass ([12]; 500 g ai/ha): 100; Plant response rating, Kochia (kochia (Kochia scoparia) [13]; 125 g ai/ha): 30; Plant response rating, Kochia (kochia (Kochia scoparia) [13]; 500 g ai/ha): 60; Plant response rating, Kochia (kochia (Kochia scoparia) [14]; 125 g ai/ha): 30; Plant response rating, Kochia (kochia (Kochia scoparia) [14]; 500 g ai/ha): 70; Plant response rating, Ducksalad (Flood) [15]: 80; Plant response rating, Pigweed ([16]; 125 g ai/ha): 80; Plant response rating, Pigweed ([16]; 500 g ai/ha): 100; Plant response rating, Ragweed ([17]; 125 g ai/ha): 20; Plant response rating, Ragweed ([17]; 500 g ai/ha): 80; Plant response rating, Galium ([18]; 125 g ai/ha): 50; Plant response rating, Galium ([18]; 500 g ai/ha): 70
2 | O=C1NCC(c2cccc(OCc3ccco3)c2)C1C(=O)Nc1ccccc1C(F)(F)F (stereo not drawn) [Compound 2] | 0 | 10 | 0 | 0 | 0 | 0 | 0 | 0 | 0 | 0 | 0 | 0 | 10 | 0 | 0 | 0 | 20 | 0 | 0 | 0 | Plant response rating, Rice (Flood) (rice (Oryza sativa)): 0; Plant response rating, Ryegrass, Italian ([11]; 125 g ai/ha): 0; Plant response rating, Ryegrass, Italian ([11]; 500 g ai/ha): 0; Plant response rating, Barnyardgrass ([12]; 125 g ai/ha): 0; Plant response rating, Barnyardgrass ([12]; 500 g ai/ha): 30; Plant response rating, Kochia (kochia (Kochia scoparia) [13]; 125 g ai/ha): 0; Plant response rating, Kochia (kochia (Kochia scoparia) [13]; 500 g ai/ha): 0; Plant response rating, Kochia (kochia (Kochia scoparia) [14]; 125 g ai/ha): 0; Plant response rating, Kochia (kochia (Kochia scoparia) [14]; 500 g ai/ha): 0; Plant response rating, Ducksalad (Flood) [15]: 0; Plant response rating, Pigweed ([16]; 125 g ai/ha): 0; Plant response rating, Pigweed ([16]; 500 g ai/ha): 0; Plant response rating, Ragweed ([17]; 125 g ai/ha): 0; Plant response rating, Ragweed ([17]; 500 g ai/ha): 0; Plant response rating, Galium ([18]; 125 g ai/ha): 0; Plant response rating, Galium ([18]; 500 g ai/ha): 0
3 | O=C1NCC(c2cccc(OCc3ccco3)c2)C1C(=O)Nc1ccccc1Cl (stereo not drawn) [Compound 1] | 0 | 0 | 0 | 0 | 0 | 0 | 0 | 0 | 0 | 0 | 30 | 0 | 0 | 0 | 0 | 0 | 0 | 0 | 0 | 0 | Plant response rating, Rice (Flood) (rice (Oryza sativa)): 0; Plant response rating, Ryegrass, Italian ([11]; 125 g ai/ha): 0; Plant response rating, Ryegrass, Italian ([11]; 500 g ai/ha): 0; Plant response rating, Barnyardgrass ([12]; 125 g ai/ha): 0; Plant response rating, Barnyardgrass ([12]; 500 g ai/ha): 0; Plant response rating, Kochia (kochia (Kochia scoparia) [13]; 125 g ai/ha): 0; Plant response rating, Kochia (kochia (Kochia scoparia) [13]; 500 g ai/ha): 0; Plant response rating, Kochia (kochia (Kochia scoparia) [14]; 125 g ai/ha): 0; Plant response rating, Kochia (kochia (Kochia scoparia) [14]; 500 g ai/ha): 0; Plant response rating, Ducksalad (Flood) [15]: 65; Plant response rating, Pigweed ([16]; 125 g ai/ha): 0; Plant response rating, Pigweed ([16]; 500 g ai/ha): 0; Plant response rating, Ragweed ([17]; 125 g ai/ha): 0; Plant response rating, Ragweed ([17]; 500 g ai/ha): 30; Plant response rating, Galium ([18]; 125 g ai/ha): 0; Plant response rating, Galium ([18]; 500 g ai/ha): 0
4 | O=C1NCC(c2cccc(Oc3ncc(F)cn3)c2)C1C(=O)Nc1cccc(F)c1F (single isomer, unassigned) [Compound 37] | 70 | 90 | 0 | 80 | 20 | 70 | 90 | 100 | 40 | 70 | 0 | 0 | 60 | 70 | 90 | 90 | 100 | 40 | 70 | 30 | Plant response rating, Rice (Flood) (rice (Oryza sativa)): 20; Plant response rating, Ryegrass, Italian ([11]; 125 g ai/ha): 20; Plant response rating, Ryegrass, Italian ([11]; 500 g ai/ha): 50; Plant response rating, Barnyardgrass ([12]; 125 g ai/ha): 90; Plant response rating, Barnyardgrass ([12]; 500 g ai/ha): 90; Plant response rating, Kochia (kochia (Kochia scoparia) [13]; 125 g ai/ha): 0; Plant response rating, Kochia (kochia (Kochia scoparia) [13]; 500 g ai/ha): 50; Plant response rating, Kochia (kochia (Kochia scoparia) [14]; 125 g ai/ha): 0; Plant response rating, Kochia (kochia (Kochia scoparia) [14]; 500 g ai/ha): 70; Plant response rating, Ducksalad (Flood) [15]: 100; Plant response rating, Pigweed ([16]; 125 g ai/ha): 60; Plant response rating, Pigweed ([16]; 500 g ai/ha): 80; Plant response rating, Ragweed ([17]; 125 g ai/ha): 20; Plant response rating, Ragweed ([17]; 500 g ai/ha): 70; Plant response rating, Galium ([18]; 125 g ai/ha): 50; Plant response rating, Galium ([18]; 500 g ai/ha): 70
